Test results: patent US20250215012A1, “IKZF2 DEGRADERS AND USES THEREOF” (REGENTS OF THE UNIVERSITY OF MICHIGAN, priority 2022, published 2025)

Assays:
IKZF1 = IKZF1 (Homo sapiens (Human), UniProt Q13422+Q96SW2); experiment: IKZF1 HiBit Assay (HEK293T Flp-in-HiBiT-IKZF1 stable cell line); format: cell-based; details: HEK293T Flp-in-HiBiT-IKZF1 cells, 6 hrs
Summary of the method: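 HEK293T Flp-in cells with CRISPR-inserted N-terminal HiBiT tag treated 6 h with 11-point threefold dilutions (0.1% DMSO). Nano-Glo HiBiT lytic luminescence normalised to DMSO gave the 50%-degradation concentration; Dmax taken as the luminescence range from highest to lowest concentration.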

IKZF2 [1] = target: T1, IKZF2 (Homo sapiens (Human), UniProt Q96SW2+Q9UKS7); experiment: IKZF2 HiBit Assay (HEK293T Flp-in-HiBiT cells); format: cell-based; details: HEK293T Flp-in-HiBiT cells, 6 hrs
T1 sequence (Q9UKS7 whole entry): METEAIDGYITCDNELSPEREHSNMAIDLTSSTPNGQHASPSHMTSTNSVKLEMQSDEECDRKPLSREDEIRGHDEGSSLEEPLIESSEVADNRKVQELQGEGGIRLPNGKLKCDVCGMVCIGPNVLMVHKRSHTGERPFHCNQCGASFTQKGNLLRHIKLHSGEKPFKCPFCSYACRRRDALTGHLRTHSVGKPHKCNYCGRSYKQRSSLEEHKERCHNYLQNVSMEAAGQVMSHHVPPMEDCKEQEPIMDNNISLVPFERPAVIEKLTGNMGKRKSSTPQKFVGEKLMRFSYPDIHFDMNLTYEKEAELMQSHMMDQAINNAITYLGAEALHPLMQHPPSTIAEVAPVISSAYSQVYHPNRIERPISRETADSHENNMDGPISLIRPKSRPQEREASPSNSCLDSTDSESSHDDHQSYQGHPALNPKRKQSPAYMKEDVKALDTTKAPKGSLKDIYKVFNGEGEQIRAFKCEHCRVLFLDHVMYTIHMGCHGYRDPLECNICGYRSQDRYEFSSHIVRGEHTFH
T1 sequence (Q96SW2 whole entry): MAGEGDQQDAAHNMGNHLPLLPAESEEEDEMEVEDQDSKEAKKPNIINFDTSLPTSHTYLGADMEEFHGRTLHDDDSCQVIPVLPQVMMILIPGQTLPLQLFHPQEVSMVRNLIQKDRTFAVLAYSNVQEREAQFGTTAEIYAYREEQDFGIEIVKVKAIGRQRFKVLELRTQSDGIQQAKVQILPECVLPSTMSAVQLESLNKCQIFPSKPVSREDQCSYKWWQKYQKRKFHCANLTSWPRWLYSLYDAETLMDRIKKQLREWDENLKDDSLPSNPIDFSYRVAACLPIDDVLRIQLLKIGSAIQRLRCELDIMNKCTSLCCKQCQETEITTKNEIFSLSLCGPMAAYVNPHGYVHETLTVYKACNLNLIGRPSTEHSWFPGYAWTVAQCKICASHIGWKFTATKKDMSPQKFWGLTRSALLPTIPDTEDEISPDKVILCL
T1 sequence (Q16531 whole entry partner): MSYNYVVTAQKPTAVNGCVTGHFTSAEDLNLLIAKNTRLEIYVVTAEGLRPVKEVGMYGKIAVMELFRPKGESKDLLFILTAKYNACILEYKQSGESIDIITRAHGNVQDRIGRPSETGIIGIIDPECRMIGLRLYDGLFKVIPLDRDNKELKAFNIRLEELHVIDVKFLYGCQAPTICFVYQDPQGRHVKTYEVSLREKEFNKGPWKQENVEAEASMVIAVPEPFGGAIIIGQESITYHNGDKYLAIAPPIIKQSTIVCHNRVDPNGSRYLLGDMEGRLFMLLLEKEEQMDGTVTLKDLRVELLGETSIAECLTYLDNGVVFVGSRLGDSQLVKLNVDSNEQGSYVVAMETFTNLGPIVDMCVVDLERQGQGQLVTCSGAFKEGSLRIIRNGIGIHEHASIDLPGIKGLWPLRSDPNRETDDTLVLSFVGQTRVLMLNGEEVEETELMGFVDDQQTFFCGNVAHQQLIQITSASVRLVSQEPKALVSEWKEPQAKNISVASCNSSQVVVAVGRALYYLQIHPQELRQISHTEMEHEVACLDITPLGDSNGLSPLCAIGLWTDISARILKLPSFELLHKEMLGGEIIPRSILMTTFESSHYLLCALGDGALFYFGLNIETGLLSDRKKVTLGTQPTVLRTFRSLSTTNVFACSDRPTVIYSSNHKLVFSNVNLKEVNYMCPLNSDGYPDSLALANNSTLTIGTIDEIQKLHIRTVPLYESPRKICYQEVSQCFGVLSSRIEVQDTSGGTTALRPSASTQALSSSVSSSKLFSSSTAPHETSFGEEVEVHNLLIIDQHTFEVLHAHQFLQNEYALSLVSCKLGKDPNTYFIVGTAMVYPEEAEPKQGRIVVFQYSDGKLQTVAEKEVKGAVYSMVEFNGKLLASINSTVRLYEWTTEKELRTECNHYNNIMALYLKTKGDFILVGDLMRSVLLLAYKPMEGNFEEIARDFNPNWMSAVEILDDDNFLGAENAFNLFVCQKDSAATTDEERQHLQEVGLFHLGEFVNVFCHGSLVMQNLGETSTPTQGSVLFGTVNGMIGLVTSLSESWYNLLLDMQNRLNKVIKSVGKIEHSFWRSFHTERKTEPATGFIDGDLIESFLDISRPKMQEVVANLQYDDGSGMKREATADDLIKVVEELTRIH
Summary of the method: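 HEK293T Flp-in cells carrying CRISPR-inserted N-terminal HiBiT tag at the endogenous IKZF2 locus were treated with an 11-point, 3-fold dilution from 1 mM (stock) for 6 hrs; final DMSO 0.1%. HiBiT luminescence was detected after lysis with LgBiT/substrate reagent. DMSO-normalized curves gave 50% degradation concentration and Dmax.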

IKZF2 [2] = target: IKZF2 (Homo sapiens (Human), UniProt Q9UKS7); experiment: IKZF2 FACS Assay (Jurkat cells); format: cell-based; details: Jurkat cells, 24 hrs; read-out: IKZF2 FACS degradation DC50
Chain of IKZF2 (Homo sapiens (Human), UniProt Q9UKS7) (Q9UKS7 whole entry): as the sequence (Q9UKS7 whole entry) above
Chain of IKZF2 (Homo sapiens (Human), UniProt Q9UKS7) (Q96SW2 whole entry, further chain): as the sequence (Q96SW2 whole entry) above
Chain of IKZF2 (Homo sapiens (Human), UniProt Q9UKS7) (Q16531 whole entry partner): as the sequence (Q16531 whole entry partner) above
Procedure: (§1) Jurkat cells (ATCC, Cat […]) were cultured in RPMI1640+10% FBS+1% P/S. Cells were treated at desired compound concentrations (0.05 to 10 μM) and DMSO as vehicle control for 24 hrs.

IKZF2 [3] = target: T1, IKZF2; experiment: IKZF2 FACS Assay (Jurkat cells); format: cell-based; details: Jurkat cells, 24 hrs; read-out: IKZF2 FACS degradation Dmax
Procedure: as §1

IKZF2 [4] = target: T1, IKZF2; experiment: IKZF2 HiBiT Assay (Jurkat-IKZF2-HiBiT cell line); format: cell-based; details: for DC50: read-out: HiBit assay degradation analysis DC50; for Dmax: read-out: HiBit assay degradation analysis Dmax
Summary of the method: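 Jurkat cells carrying HiBiT-tagged IKZF2 were exposed to serially diluted compound for 24 h at 37 °C. Remaining IKZF2 was measured by Nano-Glo HiBiT lytic luminescence after 10-20 min at room temperature. Signal was normalized to DMSO, and IC50 came from a four-parameter variable-slope fit.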

[5] = target: GST-tagged wild-type human CRBN protein (Homo sapiens (Human), UniProt Q96SW2); experiment: Cereblon Binding Assay (Cisbio Cereblon Binding Kit, TR-FRET); details: about 3 hours at room temperature
Chain of GST-tagged wild-type human CRBN protein (Q96SW2 whole entry): as the sequence (Q96SW2 whole entry) above
Procedure: (§2) The binding to cereblon (CRBN) is determined using the Cereblon Binding Kit (Cisbio, #64BDCRBNPEG) following the manufacturer's instruction. Briefly, serially diluted compounds are incubated with GST-tagged wild-type human CRBN protein, XL665-labelled Thalidomide and Europium Cryptate labelled GST antibody.
as §2, with “(CRBN) was” for “(CRBN) is”, “compounds were” for “compounds are”, “GST antibody at room temperature for about 3 hours.” for “GST antibody.”

[6] = Jurkat-IKZF2-HiBiT cells, 24 hours

Chain of IKZF1 (Q13422 whole entry): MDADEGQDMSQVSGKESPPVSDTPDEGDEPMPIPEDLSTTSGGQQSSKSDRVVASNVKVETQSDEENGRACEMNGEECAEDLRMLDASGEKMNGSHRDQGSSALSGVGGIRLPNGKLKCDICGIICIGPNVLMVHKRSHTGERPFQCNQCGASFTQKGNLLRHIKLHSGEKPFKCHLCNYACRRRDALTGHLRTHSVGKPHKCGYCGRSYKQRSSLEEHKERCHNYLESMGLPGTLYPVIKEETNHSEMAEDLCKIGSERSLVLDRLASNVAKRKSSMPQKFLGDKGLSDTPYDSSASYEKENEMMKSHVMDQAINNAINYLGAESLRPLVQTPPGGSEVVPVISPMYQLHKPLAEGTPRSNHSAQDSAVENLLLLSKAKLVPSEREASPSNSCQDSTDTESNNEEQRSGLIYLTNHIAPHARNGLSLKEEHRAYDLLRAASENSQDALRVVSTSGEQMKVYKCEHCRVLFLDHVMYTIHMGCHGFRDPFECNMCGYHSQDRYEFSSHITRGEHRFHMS
Chain of IKZF1 (Q96SW2 whole entry): as the sequence (Q96SW2 whole entry) above
Chain of IKZF1 (Q16531 whole entry partner): as the sequence (Q16531 whole entry partner) above

Row | SMILES | DC50 (IKZF2 [4]; [6]) | Dmax (IKZF2 [4]; [6]) | IC50 [5] | also measured
1 | Cn1cc(-c2cccc(CN3CCC4(CC3)COc3c5c(cc(F)c34)C(=O)N([C@H]3CCC(=O)NC3=O)C5)c2)cn1 [Compound B55, (S)-3-(4-fluoro-1′-(3-(1-methyl-1H-pyrazol-4-yl)benzyl)-6-oxo-6,8-dihydro-2H,7H-spiro[furo[2,3-e]isoindole-3,4′-piperidin]-7-yl)piperidine-2,6-dione] | – | – | – | DC50 (IKZF1; read-out: IKZF1 HiBit degradation DC50): > 1000 nM; Dmax (IKZF1; HEK-293T, read-out: IKZF1 HiBit degradation Dmax): < 20%; DC50 (IKZF2 [1]; read-out: IKZF2 HiBit degradation DC50): < 1 nM; Dmax (IKZF2 [1]; HEK-293T, read-out: IKZF2 HiBit degradation Dmax): > 80%; DC50 (IKZF2 [2]): < 10 nM; Dmax (IKZF2 [3]): 40 to 60%
2 | O=C1CCC(N2Cc3c(ccc4c3OCC43CCN(Cc4ccc5c(c4)C(=O)NC5)CC3)C2=O)C(=O)N1 (stereo not drawn) [Compound A122, 3-(6-oxo-1′-((3-oxoisoindolin-5-yl)methyl)-6,8-dihydro-2H,7H-spiro[furo[2,3-e]isoindole-3,4′-piperidin]-7-yl)piperidine-2,6-dione] | 50 to 200 nM | 60 to 80% | 100 to 1000 nM | –
3 | O=C1CCC(N2Cc3c(ccc4c3OCC43CCN(Cc4cccc(F)c4)CC3)C2=O)C(=O)N1 (stereo not drawn) [Compound A29, 3-(1′-(3-fluorobenzyl)-6-oxo-6,8-dihydro-2H,7H-spiro[furo[2,3-e]isoindole-3,4′-piperidin]-7-yl)piperidine-2,6-dione] | > 500 nM | 40 to 60% | > 1000 nM | –
4 | Cn1ccc(-c2cccc(CN3CCC4(CC3)COc3c4ccc4c3CN(C3CCC(=O)NC3=O)C4=O)c2)n1 (stereo not drawn) [Compound A134, 3-(1′-(3-(1-methyl-1H-pyrazol-3-yl)benzyl)-6-oxo-6,8-dihydro-2H,7H-spiro[furo[2,3-e]isoindole-3,4′-piperidin]-7-yl)piperidine-2,6-dione] | < 50 nM | 60 to 80% | 100 to 1000 nM | –
5 | O=C1CCC(N2Cc3c(ccc4c3OCC43CCN(Cc4cccc(-c5cnco5)c4)CC3)C2=O)C(=O)N1 (stereo not drawn) [Compound A125, 3-(1′-(3-(oxazol-5-yl)benzyl)-6-oxo-6,8-dihydro-2H,7H-spiro[furo[2,3-e]isoindole-3,4′-piperidin]-7-yl)piperidine-2,6-dione] | < 50 nM | 60 to 80% | 100 to 1000 nM | –
6 | Cc1ccc(CN2CCC3(CC2)COc2c3ccc3c2CN(C2CCC(=O)NC2=O)C3=O)cc1 (stereo not drawn) [Compound A15, 3-(1′-(4-methylbenzyl)-6-oxo-6,8-dihydro-2H,7H-spiro[furo[2,3-e]isoindole-3,4′-piperidin]-7-yl)piperidine-2,6-dione] | 200 to 500 nM | 40 to 60% | 100 to 1000 nM | –
7 | O=C1CCC(N2Cc3c(ccc4c3OCC43CCN(Cc4ccc5cn[nH]c5c4)CC3)C2=O)C(=O)N1 (stereo not drawn) [Compound A56, 3-(1′-((1H-indazol-6-yl)methyl)-6-oxo-6,8-dihydro-2H,7H-spiro[furo[2,3-e]isoindole-3,4′-piperidin]-7-yl)piperidine-2,6-dione] | < 50 nM | 60 to 80% | 100 to 1000 nM | –
8 | Cc1cc(C)cc(CN2CCC3(CC2)COc2c3ccc3c2CN(C2CCC(=O)NC2=O)C3=O)c1 (stereo not drawn) [Compound A31, 3-(1′-(3,5-dimethylbenzyl)-6-oxo-6,8-dihydro-2H,7H-spiro[furo[2,3-e]isoindole-3,4′-piperidin]-7-yl)piperidine-2,6-dione] | 200 to 500 nM | 60 to 80% | 100 to 1000 nM | –
9 | O=C1CCC(N2Cc3c(ccc4c3OCC43CCN(Cc4ccc5ccoc5c4)CC3)C2=O)C(=O)N1 (stereo not drawn) [Compound A116, 3-(1′-(benzofuran-6-ylmethyl)-6-oxo-6,8-dihydro-2H,7H-spiro[furo[2,3-e]isoindole-3,4′-piperidin]-7-yl)piperidine-2,6-dione] | < 50 nM | 60 to 80% | 100 to 1000 nM | –
10 | O=C1CCC(N2Cc3c(ccc4c3OCC43CCN(Cc4ccc5c(c4)NC(=O)C5)CC3)C2=O)C(=O)N1 (stereo not drawn) [Compound A131, 3-(6-oxo-1′-((2-oxoindolin-6-yl)methyl)-6,8-dihydro-2H,7H-spiro[furo[2,3-e]isoindole-3,4′-piperidin]-7-yl)piperidine-2,6-dione] | 50 to 200 nM | 60 to 80% | 100 to 1000 nM | –
11 | O=C1CCC(N2Cc3c(ccc4c3OCC43CCN(Cc4ccc(F)c(F)c4)CC3)C2=O)C(=O)N1 (stereo not drawn) [Compound A5, 3-(1′-(3,4-difluorobenzyl)-6-oxo-6,8-dihydro-2H,7H-spiro[furo[2,3-e]isoindole-3,4′-piperidin]-7-yl)piperidine-2,6-dione] | > 500 nM | < 40% | 100 to 1000 nM | –
12 | Cn1ccc2ccc(CN3CCC4(CC3)COc3c4ccc4c3CN(C3CCC(=O)NC3=O)C4=O)cc21 (stereo not drawn) [Compound A130, 3-(1′-((1-methyl-1H-indol-6-yl)methyl)-6-oxo-6,8-dihydro-2H,7H-spiro[furo[2,3-e]isoindole-3,4′-piperidin]-7-yl)piperidine-2,6-dione] | < 50 nM | 60 to 80% | 100 to 1000 nM | –
13 | Cn1cc(-c2cccc(CN3CCC4(CC3)COc3c4ccc4c3CN([C@H]3CCC(=O)NC3=O)C4=O)c2)cn1 [Compound A170, (S)-3-(1′-(3-(1-methyl-1H-pyrazol-4-yl)benzyl)-6-oxo-6,8-dihydro-2H,7H-spiro[furo[2,3-e]isoindole-3,4′-piperidin]-7-yl)piperidine-2,6-dione] | < 50 nM | 60 to 80% | 100 to 1000 nM | –
14 | O=C1CCC(N2Cc3c(ccc4c3OCC43CCN(Cc4cccc(-n5cncn5)c4)CC3)C2=O)C(=O)N1 (stereo not drawn) [Compound A124, 3-(1′-(3-(1H-1,2,4-triazol-1-yl)benzyl)-6-oxo-6,8-dihydro-2H,7H-spiro[furo[2,3-e]isoindole-3,4′-piperidin]-7-yl)piperidine-2,6-dione] | 200 to 500 nM | 40 to 60% | 100 to 1000 nM | –
15 | O=C1CCC(N2Cc3c(ccc4c3OCC43CCNCC3)C2=O)C(=O)N1 (stereo not drawn) [Compound A1, 3-(6-oxo-6,8-dihydro-2H,7H-spiro[furo[2,3-e]isoindole-3,4′-piperidin]-7-yl)piperidine-2,6-dione] | > 500 nM | – | > 1000 nM | Dmax (IKZF2 [4]): < 40%
16 | Cn1cc(-c2cccc(CN3CCC4(CC3)COc3c4ccc4c3CN(C3CCC(=O)NC3=O)C4=O)c2)cn1 (stereo not drawn) [Compound A105, 3-(1′-(3-(1-methyl-1H-pyrazol-4-yl)benzyl)-6-oxo-6,8-dihydro-2H,7H-spiro[furo[2,3-e]isoindole-3,4′-piperidin]-7-yl)piperidine-2,6-dione] | < 50 nM | 60 to 80% | 100 to 1000 nM | –
17 | O=C1CCC(N2Cc3c(ccc4c3OCC43CCN(Cc4cccc(-c5cccnc5)c4)CC3)C2=O)C(=O)N1 (stereo not drawn) [Compound A132, 3-(6-oxo-1′-(3-(pyridin-3-yl)benzyl)-6,8-dihydro-2H,7H-spiro[furo[2,3-e]isoindole-3,4′-piperidin]-7-yl)piperidine-2,6-dione] | < 50 nM | 60 to 80% | 100 to 1000 nM | –
18 | O=C1CCC(N2Cc3c(ccc4c3OCC43CCN(Cc4cccc5cn[nH]c45)CC3)C2=O)C(=O)N1 (stereo not drawn) [Compound A52, 3-(1′-((1H-indazol-7-yl)methyl)-6-oxo-6,8-dihydro-2H,7H-spiro[furo[2,3-e]isoindole-3,4′-piperidin]-7-yl)piperidine-2,6-dione] | < 50 nM | 60 to 80% | 10 to 100 nM | –
19 | O=C1CCC(N2Cc3c(ccc4c3OCC43CCN(Cc4cc(Br)cc5[nH]ncc45)CC3)C2=O)C(=O)N1 (stereo not drawn) [Compound A127, 3-(1′-((6-bromo-1H-indazol-4-yl)methyl)-6-oxo-6,8-dihydro-2H,7H-spiro[furo[2,3-e]isoindole-3,4′-piperidin]-7-yl)piperidine-2,6-dione] | < 50 nM | 40 to 60% | 100 to 1000 nM | –
20 | Cn1cc2ccc(CN3CCC4(CC3)COc3c4ccc4c3CN(C3CCC(=O)NC3=O)C4=O)cc2n1 (stereo not drawn) [Compound A69, 3-(1′-((2-methyl-2H-indazol-6-yl)methyl)-6-oxo-6,8-dihydro-2H,7H-spiro[furo[2,3-e]isoindole-3,4′-piperidin]-7-yl)piperidine-2,6-dione] | < 50 nM | 60 to 80% | 100 to 1000 nM | –
